Results reported in patent publication US20170008888A1 (KYORIN PHARMACEUTICAL CO., LTD., priority 2014, published 2017).

Legend:
AurA = target: T1, AurA (Homo sapiens, UniProt O14965); assay: Probe-based (AX9989) kinase profiling in Jurkat lysate: AurA; assay type: binding; details: read-out: AurA Inhibition % at indicated screening concentration; for inhibition at 1 µM: screening concentration 1 μM; for inhibition at 10 µM: screening concentration 10 μM
T1 construct: screened for activity against several kinases in Jurkat cells; endogenous in cells; host or cells: Jurkat cell lysate
T1 sequence (O14965 1-403): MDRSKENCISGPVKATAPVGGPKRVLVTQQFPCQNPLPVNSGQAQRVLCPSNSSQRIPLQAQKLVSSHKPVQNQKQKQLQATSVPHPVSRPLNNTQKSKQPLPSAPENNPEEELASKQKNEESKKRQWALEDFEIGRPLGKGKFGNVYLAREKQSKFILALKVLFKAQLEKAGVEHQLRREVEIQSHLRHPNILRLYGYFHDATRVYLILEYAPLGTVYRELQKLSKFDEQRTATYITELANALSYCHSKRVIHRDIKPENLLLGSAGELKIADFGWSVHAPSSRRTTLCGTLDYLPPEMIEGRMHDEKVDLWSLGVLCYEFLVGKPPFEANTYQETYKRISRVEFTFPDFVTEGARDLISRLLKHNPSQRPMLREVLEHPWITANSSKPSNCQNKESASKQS
How it was run: (§1)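 Jurkat lysate, HEPES pH 7.5 buffer + 20 mM MnCl2; cpd 15 min RT; AX9989 ATP probe 5 μM final, RT. Trypsin digest, streptavidin capture, LC/MS; % inhibition vs vehicle from labeled-peptide signal.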

ACK = target: T2, ACK (Homo sapiens, UniProt Q07912); assay: Probe-based (AX9989) kinase profiling in Jurkat lysate: ACK; assay type: binding; details: read-out: ACK Inhibition % at indicated screening concentration; for inhibition at 1 µM: screening concentration 1 μM; for inhibition at 10 µM: screening concentration 10 μM
T2 construct: screened for activity against several kinases in Jurkat cells; endogenous in cells; host or cells: Jurkat cell lysate
How it was run: as §1

ERK5 = target: T3, ERK5 (Homo sapiens, UniProt Q13164); assay: Probe-based (AX9989 acyl phosphate ATP probe) kinase profiling in Jurkat lysate: ERK5; assay type: binding; details: for IC50: calculated from percent inhibition and screening concentration, Jurkat lysate, AX9989 probe; for inhibition at 1 µM: screening concentration 1 μM; for inhibition at 1 µM / inhibition at 10 µM: read-out: ERK5 Inhibition % at indicated screening concentration; for inhibition at 10 µM: screening concentration 10 μM
T3 construct: screened for activity against several kinases in Jurkat cells; endogenous in cells; host or cells: Jurkat cell lysate
How it was run: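 Gel-filtered Jurkat lysate (5 mg/ml, 20 mM MnCl2) preincubated 15 min at room temperature with compound, then labelled with 5 μM AX9989 acyl phosphate ATP probe. Probe-labelled ERK5 active-site peptides quantified by LC/MS after trypsin digestion and streptavidin capture; IC50 calculated from percent inhibition at the screening concentration.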

human PBMCs = assay: Human PBMC TNF-α response to endotoxin (ELISA); assay type: cell-based; details: 0.1 μg/ml LPS 16 h, read-out: EC50 for the inhibition of the human PBMC TNF-α response to endotoxin, ave. ± S.D.
How it was run: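 PBMCs at 2e6 cells/ml in RPMI 1640 with 10% charcoal-dextran-treated FBS were pre-treated 1 h at 37 °C with compound (4-point 1:5 dilution from 10 μM). Stimulation with 0.1 μg/ml E. coli 0111:B4 LPS for 16 h; TNF-α measured by ELISA (A450) in 25-fold diluted supernatant.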

TAO2 = target: T4, TAO2 (Homo sapiens, UniProt Q9UL54); assay: Probe-based (AX9989) kinase profiling in Jurkat lysate: TAO2; assay type: binding; details: read-out: TAO2 Inhibition % at indicated screening concentration; for inhibition at 1 µM: screening concentration 1 μM; for inhibition at 10 µM: screening concentration 10 μM
T4 construct: screened for activity against several kinases in Jurkat cells; endogenous in cells; host or cells: Jurkat cell lysate
T4 sequence (Q9UL54 1-1235): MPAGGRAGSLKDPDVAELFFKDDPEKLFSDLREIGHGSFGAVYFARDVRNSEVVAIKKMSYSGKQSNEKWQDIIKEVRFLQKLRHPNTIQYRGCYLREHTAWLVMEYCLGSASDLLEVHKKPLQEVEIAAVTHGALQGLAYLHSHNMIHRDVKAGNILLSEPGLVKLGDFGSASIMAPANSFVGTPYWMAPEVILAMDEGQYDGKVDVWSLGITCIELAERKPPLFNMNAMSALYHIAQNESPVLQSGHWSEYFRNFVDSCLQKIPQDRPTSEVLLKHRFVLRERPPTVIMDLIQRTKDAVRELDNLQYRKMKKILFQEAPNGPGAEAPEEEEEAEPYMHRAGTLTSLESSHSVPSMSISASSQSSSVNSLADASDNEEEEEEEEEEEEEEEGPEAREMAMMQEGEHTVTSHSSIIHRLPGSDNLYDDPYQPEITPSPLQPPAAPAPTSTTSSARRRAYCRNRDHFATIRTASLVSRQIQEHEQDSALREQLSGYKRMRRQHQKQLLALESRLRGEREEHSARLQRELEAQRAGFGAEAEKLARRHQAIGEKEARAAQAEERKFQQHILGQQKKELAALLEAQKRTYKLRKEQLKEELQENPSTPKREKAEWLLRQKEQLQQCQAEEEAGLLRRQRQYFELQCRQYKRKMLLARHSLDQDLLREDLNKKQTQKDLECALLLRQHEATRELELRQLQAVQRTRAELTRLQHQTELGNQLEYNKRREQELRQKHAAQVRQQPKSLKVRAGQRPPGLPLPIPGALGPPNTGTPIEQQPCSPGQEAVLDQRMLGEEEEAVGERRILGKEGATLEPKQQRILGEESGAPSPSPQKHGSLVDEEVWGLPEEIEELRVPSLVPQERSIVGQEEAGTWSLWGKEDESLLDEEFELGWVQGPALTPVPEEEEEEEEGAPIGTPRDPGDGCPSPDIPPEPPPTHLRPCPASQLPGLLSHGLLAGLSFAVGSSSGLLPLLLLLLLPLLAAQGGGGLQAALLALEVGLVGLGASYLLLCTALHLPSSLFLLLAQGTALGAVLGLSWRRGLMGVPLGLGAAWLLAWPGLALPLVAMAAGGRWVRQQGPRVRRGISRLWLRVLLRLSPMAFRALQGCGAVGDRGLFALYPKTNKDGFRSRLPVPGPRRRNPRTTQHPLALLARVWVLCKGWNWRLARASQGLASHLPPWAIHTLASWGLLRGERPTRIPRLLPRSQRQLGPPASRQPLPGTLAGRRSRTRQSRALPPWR
How it was run: as §1

AMPKa1 or AMPKa2 = assay: Probe-based (AX9989) kinase profiling in Jurkat lysate: AMPKa1 or AMPKa2; assay type: binding
How it was run: as §1

ABL or ARG = assay: Probe-based (AX9989) kinase profiling in Jurkat lysate: ABL or ARG; assay type: binding
How it was run: as §1

AurB or AurC = assay: Probe-based (AX9989) kinase profiling in Jurkat lysate: AurB or AurC; assay type: binding
How it was run: as §1

JAK1 = target: T5, JAK1 (Homo sapiens, UniProt P23458); assay: Probe-based (AX9989) kinase profiling in Jurkat lysate: JAK1; assay type: binding; details: read-out: JAK1 Inhibition % at indicated screening concentration; for inhibition at 1 µM: screening concentration 1 μM; for inhibition at 10 µM: screening concentration 10 μM
T5 construct: screened for activity against several kinases in Jurkat cells; endogenous in cells; host or cells: Jurkat cell lysate
How it was run: as §1

[1] = target: T6, BRD4 bromodomain domain I [BRD4(1)] (Homo sapiens, UniProt O60885); assay: BRD4 bromodomain domain 1 inhibition assay (TR-FRET); assay type: binding
T6 construct: BRD4 bromodomain domain I [BRD4(1)]; purchased Cayman Chemicals
Procedure: The inhibitory activity of test compounds on the bromodomain, BRD4 bromodomain domain I [BRD4(1)], were determined via TR-FRET after a slight modification of the manufacturer's protocol (Cayman Chemicals, Ann Arbor, Mich.). Briefly, compounds were diluted to a 20× ([…]) concentration in DMSO. 100 nL of 20× compounds were then dry stamped into triplicate wells of black, low volume 384 well plates (Aurora Biotechnologies, Carlsbad, Calif.) using the Mosquito liquid handler (TPP Labtech, Melbourn, UK). 20× compounds were then diluted to a 4× (40 μM) concentration in Assay Buffer to result in 2% DMSO content. […] JQ1 at 10 μM or 0.5% DMSO final concentrations were used as the positive and negative controls, respectively, to set the assay window. The fluorescence was read in a time-resolved format on the Biotec Synergy 2 plate reader by exciting the signal at 340 nm and reading emissions at 620 and 670, using a 100 μs delay and 200 μs read window. […] Briefly, TR-FRET ratio values were normalized to the average TR-FRET ratio value given by 10 μM JQ1. […]

T3 sequence (Q13164 whole entry): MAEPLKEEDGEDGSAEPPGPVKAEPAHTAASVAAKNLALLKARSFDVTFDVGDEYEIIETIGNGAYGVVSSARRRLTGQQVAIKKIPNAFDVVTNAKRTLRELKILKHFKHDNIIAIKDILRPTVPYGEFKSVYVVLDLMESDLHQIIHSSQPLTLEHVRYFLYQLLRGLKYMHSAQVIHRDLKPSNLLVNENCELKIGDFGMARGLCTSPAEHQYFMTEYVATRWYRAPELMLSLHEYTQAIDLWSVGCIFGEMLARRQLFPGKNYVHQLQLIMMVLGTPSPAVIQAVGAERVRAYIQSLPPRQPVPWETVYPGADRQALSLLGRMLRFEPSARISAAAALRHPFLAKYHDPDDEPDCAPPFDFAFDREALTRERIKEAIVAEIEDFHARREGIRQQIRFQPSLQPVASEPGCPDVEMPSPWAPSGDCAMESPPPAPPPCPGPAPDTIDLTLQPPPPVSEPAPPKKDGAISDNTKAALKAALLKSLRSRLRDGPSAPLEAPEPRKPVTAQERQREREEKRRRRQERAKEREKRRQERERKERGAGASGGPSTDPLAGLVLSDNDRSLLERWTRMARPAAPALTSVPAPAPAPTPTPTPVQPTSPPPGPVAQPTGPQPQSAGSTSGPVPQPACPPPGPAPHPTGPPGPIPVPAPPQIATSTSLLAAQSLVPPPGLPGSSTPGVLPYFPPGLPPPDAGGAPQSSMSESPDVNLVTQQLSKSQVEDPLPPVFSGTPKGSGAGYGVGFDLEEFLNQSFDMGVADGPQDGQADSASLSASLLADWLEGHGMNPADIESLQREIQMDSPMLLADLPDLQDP
T5 sequence (P23458 whole entry): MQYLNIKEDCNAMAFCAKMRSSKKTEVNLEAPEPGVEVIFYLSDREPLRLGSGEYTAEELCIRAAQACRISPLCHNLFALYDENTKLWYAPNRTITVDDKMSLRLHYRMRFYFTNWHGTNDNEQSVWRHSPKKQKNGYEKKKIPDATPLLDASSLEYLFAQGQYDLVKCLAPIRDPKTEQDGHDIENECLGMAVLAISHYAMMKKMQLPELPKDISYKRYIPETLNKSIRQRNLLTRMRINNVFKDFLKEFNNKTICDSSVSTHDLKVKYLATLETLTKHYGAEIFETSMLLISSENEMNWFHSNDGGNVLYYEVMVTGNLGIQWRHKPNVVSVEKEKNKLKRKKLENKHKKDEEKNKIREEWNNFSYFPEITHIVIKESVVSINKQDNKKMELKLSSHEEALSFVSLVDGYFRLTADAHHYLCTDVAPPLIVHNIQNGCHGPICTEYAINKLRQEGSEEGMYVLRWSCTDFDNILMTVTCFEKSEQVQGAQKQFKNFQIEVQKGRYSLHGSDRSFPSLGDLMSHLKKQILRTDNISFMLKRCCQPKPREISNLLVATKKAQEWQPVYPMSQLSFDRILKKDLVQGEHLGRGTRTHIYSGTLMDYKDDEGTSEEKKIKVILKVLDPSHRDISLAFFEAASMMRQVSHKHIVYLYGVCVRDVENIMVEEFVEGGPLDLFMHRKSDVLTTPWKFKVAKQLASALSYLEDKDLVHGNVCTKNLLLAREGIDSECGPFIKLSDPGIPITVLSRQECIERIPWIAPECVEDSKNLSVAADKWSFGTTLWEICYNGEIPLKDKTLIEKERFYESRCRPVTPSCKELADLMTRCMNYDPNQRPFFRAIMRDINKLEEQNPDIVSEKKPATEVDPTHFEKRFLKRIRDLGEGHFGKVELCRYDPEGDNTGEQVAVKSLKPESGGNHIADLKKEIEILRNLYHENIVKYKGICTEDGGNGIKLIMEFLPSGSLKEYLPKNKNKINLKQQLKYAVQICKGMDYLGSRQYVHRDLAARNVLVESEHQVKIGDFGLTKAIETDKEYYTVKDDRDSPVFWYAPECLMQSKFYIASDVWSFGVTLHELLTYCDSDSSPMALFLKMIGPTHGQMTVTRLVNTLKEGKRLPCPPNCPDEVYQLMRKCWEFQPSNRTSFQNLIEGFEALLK
T2 sequence (Q07912 whole entry): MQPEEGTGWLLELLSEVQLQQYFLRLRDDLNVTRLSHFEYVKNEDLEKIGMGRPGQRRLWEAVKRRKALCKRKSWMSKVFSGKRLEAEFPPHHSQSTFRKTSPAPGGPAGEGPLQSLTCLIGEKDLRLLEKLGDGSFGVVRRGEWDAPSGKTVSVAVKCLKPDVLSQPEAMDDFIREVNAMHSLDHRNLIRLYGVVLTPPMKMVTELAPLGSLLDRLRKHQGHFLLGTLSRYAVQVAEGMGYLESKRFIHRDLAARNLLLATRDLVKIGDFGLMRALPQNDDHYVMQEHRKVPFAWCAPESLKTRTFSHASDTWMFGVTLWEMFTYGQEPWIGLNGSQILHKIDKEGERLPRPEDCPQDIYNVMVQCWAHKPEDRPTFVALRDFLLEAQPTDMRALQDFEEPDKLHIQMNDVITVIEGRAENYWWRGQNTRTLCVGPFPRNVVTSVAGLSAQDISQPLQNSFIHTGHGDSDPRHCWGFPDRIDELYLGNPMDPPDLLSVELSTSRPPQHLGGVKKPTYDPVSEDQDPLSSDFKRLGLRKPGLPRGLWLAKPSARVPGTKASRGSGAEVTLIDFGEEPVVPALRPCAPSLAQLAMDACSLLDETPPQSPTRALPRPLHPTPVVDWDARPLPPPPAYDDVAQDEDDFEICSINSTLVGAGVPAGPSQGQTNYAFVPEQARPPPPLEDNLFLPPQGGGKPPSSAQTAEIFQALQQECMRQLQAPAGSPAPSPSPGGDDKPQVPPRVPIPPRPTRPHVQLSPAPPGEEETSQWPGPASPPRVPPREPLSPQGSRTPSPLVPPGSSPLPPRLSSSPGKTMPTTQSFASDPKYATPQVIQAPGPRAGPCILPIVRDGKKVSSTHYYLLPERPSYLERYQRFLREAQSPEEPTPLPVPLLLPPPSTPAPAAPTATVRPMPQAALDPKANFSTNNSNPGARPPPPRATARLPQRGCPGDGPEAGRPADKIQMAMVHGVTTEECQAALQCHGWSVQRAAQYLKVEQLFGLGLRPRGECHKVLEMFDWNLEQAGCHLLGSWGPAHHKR

Structure (SMILES)	inhibition at 1 µM (AurA) [%]	inhibition at 1 µM (ACK) [%]	IC50 (ERK5) [µM]	inhibition at 1 µM (ERK5) [%]	inhibition at 1 µM (TAO2) [%]	AMPKa1 or AMPKa2 Inhibition % at indicated screening concentration (AMPKa1 or AMPKa2; screening concentration 1 μM)	ABL or ARG Inhibition % at indicated screening concentration (ABL or ARG; screening concentration 1 μM)	AurB or AurC Inhibition % at indicated screening concentration (AurB or AurC; screening concentration 1 μM)	inhibition at 1 µM (JAK1) [%]	inhibition at 10 µM (AurA) [%]	inhibition at 10 µM (ACK) [%]	inhibition at 10 µM (ERK5) [%]	inhibition at 10 µM (TAO2) [%]	AMPKa1 or AMPKa2 Inhibition % at indicated screening concentration (AMPKa1 or AMPKa2; screening concentration 10 μM)	ABL or ARG Inhibition % at indicated screening concentration (ABL or ARG; screening concentration 10 μM)	AurB or AurC Inhibition % at indicated screening concentration (AurB or AurC; screening concentration 10 μM)	inhibition at 10 µM (JAK1) [%]	IC50 [1] [µM]	EC50 (human PBMCs) [µM]
CN1C(=O)c2ccccc2N(C)c2cc(N[C@H]3C[C@H](O)C3)ncc21 [Compound T88]			> 0.5							50 to 75	≤ 35	75 to 90	35 to 50	E (E is ≦35%)	E (E is ≦35%)	B (B is >75% to ≦90%)	≤ 35		2.53
CCOc1cc(C(=O)N2CCN(C3CCN(C)CC3)CC2)ccc1Nc1cc2c(cn1)N(C)C(=O)c1ccccc1[S+]2[O-] (stereo not shown) [Compound T100]			> 0.5							≤ 35	≤ 35	75 to 90	≤ 35	E (E is ≦35%)	E (E is ≦35%)	E (E is ≦35%)	≤ 35		> 15
CN1C(=O)c2ccccc2S(=O)(=O)c2cc(N[C@H]3CC[C@H](O)CC3)ncc21 [Compound T127]																		> 5	4.6

More lines, main results first:

inhibition at 1 µM (AurA) [%]	inhibition at 1 µM (ACK) [%]	IC50 (ERK5) [µM]	inhibition at 1 µM (ERK5) [%]	inhibition at 1 µM (TAO2) [%]	AMPKa1 or AMPKa2 Inhibition % at indicated screening concentration (AMPKa1 or AMPKa2; screening concentration 1 μM)	ABL or ARG Inhibition % at indicated screening concentration (ABL or ARG; screening concentration 1 μM)	AurB or AurC Inhibition % at indicated screening concentration (AurB or AurC; screening concentration 1 μM)	inhibition at 1 µM (JAK1) [%]	inhibition at 10 µM (AurA) [%]	inhibition at 10 µM (ACK) [%]	inhibition at 10 µM (ERK5) [%]	inhibition at 10 µM (TAO2) [%]	AMPKa1 or AMPKa2 Inhibition % at indicated screening concentration (AMPKa1 or AMPKa2; screening concentration 10 μM)	ABL or ARG Inhibition % at indicated screening concentration (ABL or ARG; screening concentration 10 μM)	AurB or AurC Inhibition % at indicated screening concentration (AurB or AurC; screening concentration 10 μM)	inhibition at 10 µM (JAK1) [%]	IC50 [1] [µM]	Structure (SMILES)	EC50 (human PBMCs) [µM]
≤ 35	≤ 35	≤ 0.05	> 90	≤ 35	E (E is ≦35%)	E (E is ≦35%)	E (E is ≦35%)	≤ 35										CCOc1cc(C(=O)N2CCN(C3CCN(C)CC3)CC2)ccc1Nc1cc2c(cn1)N(C)C(=O)c1ccccc1N2C1CC1 [Compound T79]	7.2
		> 0.5							≤ 35	≤ 35	≤ 35	≤ 35	E (E is ≦35%)	E (E is ≦35%)	E (E is ≦35%)	≤ 35		CCOc1cc(C(=O)N2CCN(C3CCN(C)CC3)CC2)ccc1Nc1cc2c(cn1)N(C)C(=N)c1ccccc1N2C [Compound T80]	> 15
≤ 35	≤ 35	> 0.5	≤ 35	≤ 35	E (E is ≦35%)	E (E is ≦35%)	E (E is ≦35%)	≤ 35										CCOc1cc(C(=O)N2CCC(N3CCN(C)CC3)CC2)ccc1Nc1cc2c(cn1)N(C)C(=O)c1ccccc1N2S(C)(=O)=O [Compound T85]	> 15
